From PubChem BioAssay (NCI)
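Grown in 96-well plates, cells were treated for 48 hours with each compound at five concentrations. Insufficient inhibition: endpoint recorded as highest concentration tested. The concentration for full growth arrest is given as TGI.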

Experiments:
Assay in all cases: NCI-60 cell line screen, 48 h
BT-549 breast = system: BT-549 breast
NCI-H522 lung = system: NCI-H522 lung
TK-10 renal = system: TK-10 renal
SF-295 CNS = system: SF-295 CNS
CAKI-1 renal = system: CAKI-1 renal
NCI/ADR-RES ovarian = system: NCI/ADR-RES ovarian
SK-MEL-28 melanoma = system: SK-MEL-28 melanoma
UACC-257 melanoma = system: UACC-257 melanoma
CCRF-CEM leukemia = system: CCRF-CEM leukemia
IGROV1 ovarian = system: IGROV1 ovarian
OVCAR-4 ovarian = system: OVCAR-4 ovarian

| Compound | TGI (BT-549 breast) | TGI (NCI-H522 lung) | TGI (TK-10 renal) | TGI (SF-295 CNS) | TGI (CAKI-1 renal) | TGI (NCI/ADR-RES ovarian) | TGI (SK-MEL-28 melanoma) | TGI (UACC-257 melanoma) | TGI (CCRF-CEM leukemia) | TGI (IGROV1 ovarian) | TGI (OVCAR-4 ovarian) |
| --- | --- | --- | --- | --- | --- | --- | --- | --- | --- | --- | --- |
| O=C(NNC(=S)Nc1cccc(Cl)c1)c1cc(-c2ccccc2)nc2ccccc12 | 34.3 µM | 34.9 µM | 30.8 µM | 24.5 µM | 43.1 µM | 56.2 µM | 26.5 µM | 31.5 µM | 32.2 µM | 47 µM | 28.7 µM |
| Cc1c(S(=O)(=O)/N=C(\NO)Nc2ccc(Cl)c(Cl)c2)sc2ccc(Cl)cc12 | 34 µM | 41.3 µM | 34.4 µM | 33.6 µM | 38.2 µM | 41.7 µM | 42.5 µM | 37.6 µM | > 100 µM | 34.5 µM | 32.3 µM |
| CCOC(=O)/C=C(/C(=O)OCC)n1ccc(=O)n(Cc2cn(COCCOC(C)=O)nn2)c1=O | 30.4 µM | 16 µM | 32 µM | > 100 µM | 14 µM | 48.1 µM | 35.1 µM | 42.4 µM | 4.8 µM | 31.9 µM | 42.7 µM |
| CC12C(=O)CC(CC1=O)C2(C)C | > 100 µM | > 100 µM | > 100 µM | > 100 µM | > 100 µM | > 100 µM | > 100 µM | > 100 µM | > 100 µM | > 100 µM | > 100 µM |
| COc1ccc(C(=C(Cl)c2ccccc2)c2ccc(OC)cc2)cc1 | > 100 µM | > 100 µM | > 100 µM | > 100 µM | > 100 µM | > 100 µM | > 100 µM | > 100 µM | > 100 µM | > 100 µM | > 100 µM |
| O=C(N/N=C/c1ccccc1)c1c(-c2cccnc2)cnc2ccccc12 | > 100 µM | > 100 µM | > 100 µM | > 100 µM | > 100 µM | > 100 µM | > 100 µM | > 100 µM | > 100 µM | > 100 µM | > 100 µM |
| O=C1C=C(C2=CC(=O)C(=O)c3ccccc32)c2ccccc2C1=O | > 100 µM | > 100 µM | 75.4 µM | 66.5 µM | 47.8 µM | > 100 µM | > 100 µM | > 100 µM | > 100 µM | > 100 µM | > 100 µM |
| Cn1cc(NC(=O)c2cc(NC(=O)CN=C(N)N)cn2C)cc1C(=O)NCCC(=N)N | > 100 µM | > 100 µM | > 100 µM | > 100 µM | > 100 µM | > 100 µM | > 100 µM | > 100 µM | > 100 µM | > 100 µM | > 100 µM |
| Cc1ccc(-c2c(C#N)c(-c3ccc(Cl)cc3)c(C#N)c(=O)n2NS(=O)(=O)c2ccc(C)cc2)cc1 | > 100 µM | 71.9 µM | > 100 µM | > 100 µM | > 100 µM | 49.6 µM | > 100 µM | > 100 µM | 51.8 µM | > 100 µM | > 100 µM |
| O=C(NI1OC(=O)c2ccccc21)c1ccc(Cl)cc1 | > 100 µM | 35.2 µM | > 100 µM | > 100 µM | > 100 µM | > 100 µM | > 100 µM | > 100 µM | > 100 µM | > 100 µM | > 100 µM |
| c1ccc2c(c1)ccn2CCc1c[nH]c2ccccc12 | > 10 µM | > 10 µM | > 10 µM | > 10 µM | > 10 µM | > 10 µM | > 10 µM | > 10 µM | > 10 µM | > 10 µM | > 10 µM |
| CC1(C)NC2C(=O)c3c([nH]c4ccccc34)[C@]3(C)CCC1CC23 (some centres not stated) | > 100 µM | > 100 µM | > 100 µM | > 100 µM | > 100 µM | > 100 µM | > 100 µM | > 100 µM | > 100 µM | > 100 µM | > 100 µM |
| CSc1ncnc2c1ncn2C1CC(Oc2ccc(C)cc2)C(COc2ccc(C)cc2)O1 (configuration not stated) | > 100 µM | > 100 µM | > 100 µM | > 100 µM | > 100 µM | > 100 µM | > 100 µM | > 100 µM | > 100 µM | > 100 µM | > 100 µM |
| C[N+](C)(C)CC1CCCCCCCCCCC1=O (configuration not stated) | > 100 µM | > 100 µM | > 100 µM | > 100 µM | > 100 µM | > 100 µM | > 100 µM | > 100 µM | > 100 µM | > 100 µM | > 100 µM |
| CCOCc1nc2c(OC)cc(-c3nc4ccc(N5CCN(C)CC5)cc4[nH]3)c(OC)c2[nH]1 | > 100 µM | 58.2 µM | > 100 µM | 36.8 µM | 81.9 µM | > 100 µM | 36.3 µM | 34.4 µM | 34 µM | > 100 µM | > 100 µM |
| CCN(CC)C(=O)Cn1c(C)cc2ccccc21 | > 100 µM | > 100 µM | > 100 µM | > 100 µM | > 100 µM | > 100 µM | > 100 µM | > 100 µM | > 100 µM | > 100 µM | > 100 µM |
| OCC(O)COCn1nncc1Cn1ncc2c(SCc3ccccc3)ncnc21 (configuration not stated) | > 100 µM | 33.1 µM | > 100 µM | > 100 µM | > 100 µM | > 100 µM | > 100 µM | > 100 µM | > 100 µM | > 100 µM | > 100 µM |
